Measurements taken from PubChem BioAssay AID1013 (Columbia University Molecular Screening Center, 2008).
The source made the active and inactive calls. The rule behind the calls is not given here.

Assay: inhibitors of TNFa-induced VCAM1 expression, confirmation, imaging, TNFa stimulus, retest and dose response (AID 1013);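 for cell count: compound on cells 1 h before TNFa then 24 h more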
Conditions: TNFa-stimulated cells, VCAM1 expression imaging; at 2 µM; stronger effect = higher value

| SMILES | inhibition |
| --- | --- |
| O=C(NC1CC1)c1ccc(S(=O)(=O)NCC2CCCCC2)cc1 | 7.4% (inactive) |
| Cc1ccc(N/N=C/c2ccc(N3CCOCC3)cc2)cc1C | -4.8% (inactive) |
| CCOC(=O)c1ccc(NC(=O)CCNc2c(N3CCCC3)c(=O)c2=O)cc1 | -10.3% (inactive) |
| O=C(NC(Cc1c[nH]c2ccccc12)C(=O)O)c1ccco1 (centres undefined) | -11.2% (inactive) |
| COC(=O)c1c(NC(=O)c2ccc(S(=O)(=O)N3CCOCC3)cc2)sc2c1CCN(C)C2 | -5.4% (inactive) |
| CCOC(=O)c1cnc(-n2nc(C)cc2C)nc1N1CCOCC1 | 0.6% (inactive) |
| O=C(NC(NC1CCS(=O)(=O)C1)C(=O)c1cccs1)c1ccccc1 (centres undefined) | 9.9% (inactive) |
| Cc1cc(C)n(-c2nc(-c3cccc(Cl)c3)cs2)n1 | 2.2% (inactive) |
| CC(C)C(=O)Nc1ccc(C(=O)NNC(=O)NC2CCCCC2)cc1 | -6.3% (inactive) |
| COc1ccc(S(=O)(=O)NC(CC(=O)NCc2ccco2)C(C)C)cc1 (centres undefined) | 4.6% (inactive) |
| CCOc1ccc(C2/C(=C(\O)c3c(C)[nH]c(C(=O)OC)c3C)C(=O)C(=O)N2CCN(C)C)cc1 (centres undefined) | -5.6% (inactive) |
| CCOc1ccc(-n2c(SCC(=O)Nc3ccc(OC)cc3)nc3c(c2=O)SCC3)cc1 | -17% (inactive) |
| COc1ccc(CN2C(=O)[C@@H]3C(c4ccc(F)cc4)=NO[C@@H]3C2=O)cc1 | -6.1% (inactive) |
| CC(=O)c1cccc(Nc2nc(-c3cccc([N+](=O)[O-])c3)cs2)c1 | 9.3% (inactive) |
| OC1(c2cccc(C(F)(F)F)c2)CCN(c2ncnc3c2[nH]c2ccc(F)cc23)CC1 | 1% (inactive) |
| CN(CC(=O)NCc1ccncc1)S(=O)(=O)c1ccc(F)cc1 | 0.2% (inactive) |
| Clc1ccc(-n2ncc3c(NCc4ccc5c(c4)OCO5)ncnc32)cc1 | 5.1% (inactive) |
| Cn1c(CNc2ccccc2O)nc2ccccc21 | 11.9% (inactive) |
| Cc1nc(SCc2ccc(Br)cc2)[nH]c(=O)c1C | 5.1% (inactive) |
| CCCCOCCCNC(=O)c1cccs1 | -15.4% (inactive) |
| COc1ccc(CC(=O)OCc2cc3ccc(C)cc3[nH]c2=O)cc1 | 6.4% (inactive) |
| CC1=C(C#N)C(Nc2cccc(C)n2)(C(F)(F)F)C(=O)N1 (centres undefined) | -1% (inactive) |
| CSCCC(NC(=O)OCc1ccccc1)C(=O)O (centres undefined) | 6.7% (inactive) |
| O=C(Cn1ncc2c(=O)oc3ccccc3c21)NCCC1=CCCCC1 | -1.9% (inactive) |
| CN1C(=O)N(C)C(=O)C2(Cc3ccccc3N3CCOCC32)C1=O (centres undefined) | 6.4% (inactive) |

| SMILES | inhibition |
| --- | --- |
| CCn1c(SCC(=O)N2CCN(c3cccc(Cl)c3)CC2)nc2ccccc2c1=O | 8.3% (inactive) |
| CC1Oc2ccccc2C=C1/C=C1/SC(N2CCOCC2)=NC1=O (centres undefined) | -2.1% (inactive) |
| Cc1ccc(F)cc1NC(=O)c1ccc2c(c1)OCO2 | -22.8% (inactive) |
| N=C1C(c2nc3ccccc3s2)=C(O)CN1Cc1ccco1 | -3% (inactive) |
| COc1ccc(-c2nc(C#N)c(NCCCN(C)C)o2)cc1OC | -0.1% (inactive) |
| c1ccc(-c2nnc(CSc3nncs3)o2)cc1 | -12% (inactive) |
| NC1=CC(=O)c2cccc3cccc1c23 | 6.1% (inactive) |
| Cc1ccc(-c2nc(NC(=O)c3nn(C)cc3[N+](=O)[O-])sc2C)cc1 | 91.2% (inactive) |
| Nc1nc2c3ccccc3nc(Cc3ccccc3)n2n1 | -8.7% (inactive) |
| CCCOC(=O)C1C2C=C[C@]3(CN(CCc4ccccc4)C(=O)[C@H]13)O2 (some centres undefined) | 4.5% (inactive) |
| COC1(c2ccccc2)NC(=S)NN=C1c1ccccc1 (centres undefined) | -8.1% (inactive) |
| C=CCn1c(N)c(C(=O)OCC(C)C)c2nc3ccccc3nc21 | -3.5% (inactive) |
| C=CC(=O)Nc1ccc(Br)cc1 | -8.4% (inactive) |
| Cc1cc(C(=O)NN)c2cc(Br)ccc2n1 | -7.2% (inactive) |
| CN(C)c1nc(N(C)C)nc(N(C#N)CCOc2ccccc2)n1 | -3.1% (inactive) |
| COc1ccc(C)cc1S(=O)(=O)Nc1cccc(SC)c1 | 3.5% (inactive) |
| CCCCN(C(=O)NC(=O)Nc1cccc(C)c1C)S(C)(=O)=O | 9.3% (inactive) |
| CCN1C(=O)CSC1=NC12CC3CC(CC(C3)C1)C2 | -5.9% (inactive) |
| Cc1ccn2c(NC(=O)c3ccco3)c(-c3ccccc3)nc2c1 | 3.4% (inactive) |
| N=c1nc(N)nc2n1NC(c1ccc(F)cc1)=CS2 | -1.2% (inactive) |
| Cc1cc(C)cc(OCc2nnc(SCC(=O)N3CCN(c4ccccc4)CC3)o2)c1 | -2% (inactive) |
| Cc1nc([N+](=O)[O-])c(Br)n1CC(=O)c1ccc(Br)cc1 | 27% (inactive) |
| O=S(=O)(Nc1ccc(-n2cccc2)cc1)c1ccccc1 | 11.9% (inactive) |
| O=C(O)C1CCC(N2C(=O)C3CCCCC3C2=O)CC1 (centres undefined) | 12.7% (inactive) |
| Cc1cc(OCc2ccc(F)cc2)nc(-c2ccccc2O)n1 | -12.1% (inactive) |

| SMILES | inhibition |
| --- | --- |
| N#CCc1nc2c3c4c(sc3ncn2n1)CCCC4 | 62.9% (inactive) |
| Cc1ccc(-n2nc3ccc(NC(=O)/C=C/c4ccco4)cc3n2)cc1C | 14% (inactive) |
| CCc1cccc(CC)c1NC(=O)C1SC(=Nc2ccccc2C)C(c2nc3ccccc3s2)=C1N (centres undefined) | 3.9% (inactive) |
| O=C(CC(c1ccccc1)c1ccccc1)NCC1CCCO1 (centres undefined) | -7.2% (inactive) |
| Cc1noc(C)c1S(=O)(=O)N1CCC2(CC1)OCCO2 | 7.1% (inactive) |
| Cc1cc(C)n(-c2nc3ccccc3nc2N2CCN(C(=O)c3ccc(Cl)cc3)CC2)n1 | -5.2% (inactive) |
| CN1CCc2nc3sc(C#N)c(N)c3c(-c3cccs3)c2C1 | -13.9% (inactive) |
| COc1ccc(OC)c(C2CC(=O)c3c([nH]c(C(=O)OC(C)C)c3C)C2)c1 (centres undefined) | 35.5% (inactive) |
| Cc1oc(-c2ccc(Cl)cc2)cc1-c1nn2c(-c3ccoc3C)nnc2s1 | -0.1% (inactive) |
| COC(=O)c1cccc(S(=O)(=O)N(Cc2ccco2)Cc2cc3ccc(OC)cc3[nH]c2=O)c1 | -3.6% (inactive) |
| O=C(C1CCC1)N1CCc2cc(S(=O)(=O)Nc3ccc4c(c3)OCCO4)ccc21 | -2.3% (inactive) |
| CC(C)(CO)NC(=O)CCCOc1ccc(Cl)cc1Cl | -18.9% (inactive) |
| COc1cc2c3c(c1OC)-c1cc(O)ccc1CC3NCC2 (centres undefined) | -7.7% (inactive) |
| CC(=O)Nc1ccc(S(=O)(=O)n2cnc(C)c2)cc1 | -13.1% (inactive) |
| CN1CCCCc2c1[nH]c1ccccc1c2=O | 5.5% (inactive) |
| COc1ccc(S(=O)(=O)Nc2nc3n(n2)C(c2ccc(Cl)cc2)CC(=O)N3)cc1 (centres undefined) | -17.4% (inactive) |
| CCn1c(SCC(=O)Nc2ccc(C(=O)OC)cc2)nnc1-c1cccs1 | 10.1% (inactive) |
| CCCC(C(=O)NC1CCCC1)N(CCCN1CCOCC1)C(=O)c1snc(C(N)=O)c1N (centres undefined) | 4.4% (inactive) |
| COc1cccc(CSc2nc3ccccc3cc2C=O)c1 | 43.3% (inactive) |
| Cc1oc2cc3c(C(=O)N4CCCCC4)c(C)oc3cc2c1C(=O)N1CCCCC1 | 4.7% (inactive) |
| O=[N+]([O-])c1cnccc1Nc1ccc(F)cc1 | 15.4% (inactive) |
| CCOC(=O)C1=C(CSc2nc3c(cc2C#N)CN(C)CC3)OC(N)=C(C#N)C1c1ccccc1 (centres undefined) | -5.4% (inactive) |
| C/C(Cl)=C\Cn1c(NCCCn2ccnc2)nc2c1c(=O)n(C)c(=O)n2C | 4.7% (inactive) |
| C=CCOc1c2ccc(C(=O)NCc3ccccc3OC)cc2nn1C | 4.3% (inactive) |
| COc1ccc(C(C)(C)C)cc1S(=O)(=O)N1CCN(C)CC1 | -3.3% (inactive) |

| SMILES | inhibition |
| --- | --- |
| CCOc1ccc2ccccc2c1/C=N/n1cncn1 | 2.4% (inactive) |
| Cc1cc(C(=O)NN=C2C3CC4CC(C3)CC2C4)c2ccccc2n1 | -1.3% (inactive) |
| O=C1CC(N2CCN(Cc3ccc4c(c3)OCO4)CC2)C(=O)N1Cc1ccc(N2CCCC2=O)cc1 (centres undefined) | -5.2% (inactive) |
| COc1ccccc1-c1cn(S(=O)(=O)c2ccc(C)cc2)nc1N | 2.2% (inactive) |
| O=C(Nc1ccccc1)/C(=C\c1ccc2c(c1)OCO2)NC(=O)c1ccco1 | -3% (inactive) |
| COc1ccc(CN2CCCCC2C(=O)Nc2ccc(OC)c(OCC(C)C)c2)cc1OC (centres undefined) | -5.8% (inactive) |
| Nc1ccccc1NC(=O)c1ccccc1N | -3.2% (inactive) |
| COc1ccccc1-n1cnc2cc(NCc3cccs3)ccc21 | -3.5% (inactive) |
| N#Cc1c(NCc2ccccc2)ccnc1NCc1cccnc1 | -17.4% (inactive) |
| CCOC(=O)N1CCC(NC(=O)c2ccc(CS(=O)(=O)c3ccc(OC)cc3)o2)CC1 | -7.8% (inactive) |
| CCOC1=NC(C(=O)O)c2ccccc2/C(=C(/C)Cl)N1 (centres undefined) | 7.8% (inactive) |
| CC1Cc2cc(-c3csc(NC(=O)Cc4cccs4)n3)ccc2N1S(C)(=O)=O (centres undefined) | 0.8% (inactive) |
| OCCCCNc1cccc2ccccc12 | -3.2% (inactive) |
| Cc1ccc(OCc2ccoc2C(=O)O)cc1C | 2.2% (inactive) |
| CO/N=C/C(=N\Nc1ccc(C)cc1)C(=O)c1ccc(OC)cc1 | 29% (inactive) |
| OCCNCC(O)Cn1ccc2ccccc21 (centres undefined) | -5.6% (inactive) |
| CCOC(=O)N1CCN(C(=O)c2ccc3c(c2)NC(=O)C(N2CCOCC2)S3)CC1 (centres undefined) | 2.1% (inactive) |
| O=C1CCSc2cccc3cccc(c23)N1 | 2.8% (inactive) |
| C/C(=C\C(=O)c1cccnc1)Nc1ccc(C)c(C)c1 | -15.6% (inactive) |
| Cc1ccc(C)c(NC(=S)NC(NC(=O)Cc2cccc3ccccc23)C(Cl)(Cl)Cl)c1 (centres undefined) | 75.3% (inactive) |
| CCCOC(=O)CSC1=C(C#N)C(c2ccccc2OC)C(C#N)C(=O)N1 (centres undefined) | -11.7% (inactive) |
| COc1cccc(OC)c1NC(=O)CN1CCC(NC(=O)c2cccc(F)c2)CC1 | 6.5% (inactive) |
| CCOC(=O)c1oc2ccccc2c1NC(=O)Cc1cccs1 | -16.8% (inactive) |
| O=C(CSc1nc2ccccc2s1)NNC(=S)Nc1ccc(Br)cc1 | 1.8% (inactive) |

Same assay, conditions: TNFa-stimulated cells, VCAM1 expression imaging; cell count; at 10 µM; stronger effect = lower value

| SMILES | cell count |
| --- | --- |
| Cc1ccc(-c2nc(NC(=O)c3nn(C)cc3[N+](=O)[O-])sc2C)cc1 | 113% |
| Cc1nc([N+](=O)[O-])c(Br)n1CC(=O)c1ccc(Br)cc1 | 116% |
| N#CCc1nc2c3c4c(sc3ncn2n1)CCCC4 | 87.3% |
| COc1cccc(CSc2nc3ccccc3cc2C=O)c1 | 91.7% |
| Cc1ccc(C)c(NC(=S)NC(NC(=O)Cc2cccc3ccccc23)C(Cl)(Cl)Cl)c1 (centres undefined) | 99.3% |
